As usually defined, the IC50 is the concentration that gives 50% inhibition. Read a low IC50 as higher potency.

Chain of Urease (P07374 whole entry): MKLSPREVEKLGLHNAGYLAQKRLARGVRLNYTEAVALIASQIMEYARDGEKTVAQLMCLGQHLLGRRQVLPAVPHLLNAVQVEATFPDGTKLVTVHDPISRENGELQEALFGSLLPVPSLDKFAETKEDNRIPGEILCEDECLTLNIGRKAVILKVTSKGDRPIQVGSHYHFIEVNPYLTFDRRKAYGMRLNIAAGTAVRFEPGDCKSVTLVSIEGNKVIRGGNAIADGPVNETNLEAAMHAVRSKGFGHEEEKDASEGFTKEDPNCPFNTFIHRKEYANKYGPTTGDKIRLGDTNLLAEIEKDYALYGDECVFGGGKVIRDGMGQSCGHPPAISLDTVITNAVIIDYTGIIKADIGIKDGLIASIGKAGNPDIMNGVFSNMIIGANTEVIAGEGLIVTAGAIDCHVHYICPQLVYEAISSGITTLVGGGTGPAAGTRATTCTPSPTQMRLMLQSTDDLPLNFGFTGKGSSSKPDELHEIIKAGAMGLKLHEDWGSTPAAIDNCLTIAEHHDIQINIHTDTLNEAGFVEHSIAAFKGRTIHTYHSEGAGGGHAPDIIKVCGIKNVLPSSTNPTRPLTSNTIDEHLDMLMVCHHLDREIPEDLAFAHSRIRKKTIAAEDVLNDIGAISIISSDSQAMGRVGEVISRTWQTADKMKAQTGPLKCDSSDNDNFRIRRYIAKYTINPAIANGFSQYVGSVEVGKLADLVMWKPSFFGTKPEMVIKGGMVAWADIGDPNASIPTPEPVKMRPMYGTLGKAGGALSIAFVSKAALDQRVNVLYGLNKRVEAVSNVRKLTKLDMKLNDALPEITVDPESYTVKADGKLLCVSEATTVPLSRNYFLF

The experiment concerns the target Urease (Canavalia ensiformis, UniProt P07374). As to the kind of experiment: Inhibition Assay. From the text:
In vitro inhibition assay using jack bean urease.
`Oc1ccccc1C1CC(c2ccccc2)Sc2ccccc2N1` [2,3,4,5-Tetrahydro-1,5-benzothiazepine analog (2S,4R), 6] displayed an IC50 of 91.2 µM. In the case of `Oc1ccccc1C1CC(c2ccc(F)cc2)Sc2ccccc2N1` [2,3,4,5-Tetrahydro-1,5-benzothiazepine analog (2S,4R), 7] it was 93.7 µM. The value for `c1ccc(C2=Nc3ccccc3SC(c3ccccc3)C2)cc1` (stereo unspecified) [Dihydro-1,5-benzothiazepine analog, 2] was 26.3 µM; that for `Cc1ccc(C2CC(c3ccccc3)=Nc3ccccc3S2)cc1` (stereo unspecified) [Dihydro-1,5-benzothiazepine analog, 3] was 24.6 µM; that for `O=COc1ccc(C2CC(c3ccccc3O)=Nc3ccccc3S2)cc1OC=O` (stereo unspecified) [Dihydro-1,5-benzothiazepine analog, 4] was 19.1 µM. The value for `O=[N+]([O-])c1ccc(C2CC(c3ccccc3)=Nc3ccccc3S2)cc1` (stereo unspecified) [Dihydro-1,5-benzothiazepine analog, 5] was 36.7 µM.
